According to PubChem BioAssay AID2305 (GlaxoSmithKline (GSK), 2010):

test system: P. falciparum 3D7 growth, pLDH absorbance; test: blood-stage malaria parasite growth potency – strain 3D7, dose response (AID 2305)

Compared with `Cc1cc(O)c2c3c1C(=O)C=C1C3c3c(c(O)cc(O)c3C(=O)C1(C)C)C2=O` (stereo not given), `CCc1cc2c(cc1CC)CC(NC[C@@H](O)c1ccc(O)c3[nH]c(=O)ccc13)C2` is 1.5-fold lower in IC50: 1680 nM for the first, 1120 nM for the second. The second is the more potent here.

First: O=C(NC(=O)c1ccccc1)NC1CCN(c2ccnc3cc(Cl)ccc23)C1 (stereo not given)
Second: O=C(Nc1ccc(C(F)(F)F)cc1)NC1CCN(c2ccnc3ccccc23)CC1
The IC50 of the first is 3.2-fold higher: 580 nM for the first, 180 nM for the second.

`Cc1cc(N[C@@H](Cc2ccccc2)C(=O)Nc2ccccc2)nc(Nc2ccccc2)n1` and `Cc1cccc(CNc2nc(C)cc(N[C@@H](Cc3ccccc3)C(=O)NCc3cccc(F)c3)n2)c1` are within 1.5-fold of each other in IC50: 1010 nM for the first, 1040 nM for the second.

`O=C(c1cccc(COc2ccc3c(c2)CCN(C2CCCC2)CC3)c1)N1CCN(c2ccncc2)CC1` and `O=S(=O)(Nc1cccc(CCN2CCC(N3CCCCC3)CC2)c1)c1cccc2cccnc12` are within 1.5-fold of each other in IC50: 740 nM for the first, 850 nM for the second.

First: O[C@@H](c1cccc2ccccc12)[C@@H]1CN(CCc2ccccc2)CC[C@@]1(O)c1ccccc1
Second: NC1=NC(c2ccccc2)(c2ccccc2)C(=O)N1CCCCc1ccccc1
The IC50 of the first is 5.4-fold lower: 140 nM for the first, 760 nM for the second.

Compared with `CCN(CC)c1ccc(-c2nc3ncc(Cl)cc3[nH]2)cc1`, `CCN(CC(C)O)C(=O)c1ccc(-c2cccc(-c3nc4c(C)cccc4[nH]3)c2)cc1` (stereo not given) is 1.8-fold lower in IC50: 1130 nM for the first, 640 nM for the second. The second is the more potent here.

First: COc1cc(C)nc2ccc(NC(=O)Nc3cccc4ccccc34)cc12
Second: Cc1cnc(C(=O)Nc2cccc(-c3csc(-c4nc5ccccc5[nH]4)c3)c2)cn1
The IC50 of the first is 3.3-fold higher: 880 nM for the first, 270 nM for the second. The second is the more potent here.

Compared with `CC(C)(C)NCCN(Cc1ccc(-c2ccc(C(F)(F)F)cc2)cc1)C(=O)Cn1c(CCc2cccc(F)c2F)nc(=O)c2c1CCC2`, `CCN(CC)CCN(Cc1ccc(-c2ccc(C(F)(F)F)cc2)cc1)C(=O)Cn1c(CCc2cccc(F)c2F)cc(=O)c(C)c1C` is 1.5-fold lower in IC50: 950 nM for the first, 620 nM for the second.

`Cc1ccccc1C1CCN(C2CCC(NC(=O)/C=C/c3ccc(F)c(F)c3)CC2)CC1` (stereo not given) and `CS(=O)(=O)Nc1ccc2[nH]cc(C3CCN(CCCCCNC(=O)/C=C/c4ccc(Cl)c(Cl)c4)CC3)c2c1` are within 1.5-fold of each other in IC50: 950 nM for the first, 740 nM for the second.

First: COc1ccc(CCNc2nc(NCc3ccccc3)c3cc(OC)c(OC)cc3n2)cc1OC
Second: Oc1ccc(CCNc2nc(NCc3cccc(OCc4cccc(F)c4)c3)nc(N3CCNCC3)n2)cc1
The IC50 of the first is 4.1-fold lower: 330 nM for the first, 1340 nM for the second. The first is the more potent here.

`CS(=O)(=O)c1ccc(CCNCc2ccc(-c3ccc(CNC4Cc5ccccc5C4)cc3)nc2)cc1` and `COc1ccc(C(=O)CCC(=O)N(CCSC(C)(C)C)Cc2ccc(-c3ccc(CNCCc4ccc(S(C)(=O)=O)cc4)cn3)cc2)cc1F` are within 1.5-fold of each other in IC50: 760 nM for the first, 630 nM for the second.

`S=C(NN=Cc1ccccn1)Nc1ccc(Cl)c(Cl)c1` and `Cc1ccn2c(N(Cc3ccccc3)C(=O)c3ccc(Cl)c(Cl)c3)c(-c3ccccc3)nc2c1` are within 1.5-fold of each other in IC50: 770 nM for the first, 990 nM for the second.

First: COc1ccc2ncc(F)c(CCN3CC[C@@H](CNCc4nc5c(cc4C)SCC(=O)N5)C3)c2n1
Second: COc1ccc2nccc([C@@H](O)CN3CCC(NCc4cc5ccccc5o4)CC3)c2c1
The IC50 of the first is 1.7-fold higher: 1150 nM for the first, 660 nM for the second. The second is the more potent here.

`CN(C)CCOc1ccc(-c2cc(-c3ccc(Cl)c(O)c3)c(-c3ccncc3)[nH]2)cc1` and `COc1ccc(-c2ccc(NC(=O)c3cccc(Cl)c3)cc2)cc1CN(C)CCN(C)C` are within 1.5-fold of each other in IC50: 580 nM for the first, 780 nM for the second.

Compared with `CC1(C)N=C(N)N=C(N)N1c1cccc(Cl)c1`, `Cc1cc(N(C)C2CCN(C)C2)nc(Nc2ccccc2Cl)n1` (stereo not given) is 19-fold higher in IC50: 40 nM for the first, 750 nM for the second. The first is the more potent here.

First: Cn1nc(C(F)(F)F)c(-c2ccc(F)cc2)c1NC(=O)Nc1ccc(F)cc1F
Second: Cc1cccc2[nH]c(-c3cccc(-c4ccc(NC(=O)Nc5ccc(F)c(F)c5F)cc4)c3)nc12
The IC50 of the first is 4.5-fold higher: 760 nM for the first, 170 nM for the second.

Going from `Cc1ccc2c(=O)c3cc(C)ccc3[nH]c2c1` to `Cc1ccc2[nH]c3c(NCCCN(C)C)ncnc3c2c1`, the IC50 rises from 420 nM to 650 nM (1.5-fold).

First: COc1ccc2c(CCNc3nc(SC)ncc3C(=O)NCCc3ccc(F)cc3)c[nH]c2c1
Second: Cn1nccc1C(=O)NCCNCc1cccc(-c2cccc(-c3nc4ccc(F)cc4[nH]3)c2)c1
The IC50 of the first is 2.9-fold higher: 760 nM for the first, 260 nM for the second.

Compared with `CC(C)(C(=O)Nc1ccc(N2CCC3(CCCN(CC4CC4)C3)CC2)c(Cl)c1)c1cccc(C(F)(F)F)c1`, `CC(C)(C)c1ccc(CN2CCC(NC(=O)c3ccc(-c4cccc(C(F)(F)F)c4)s3)CC2)cc1` is 5.6-fold lower in IC50: 2000 nM for the first, 360 nM for the second. The second is the more potent here.

First: COC(=O)c1ccc(CCC(C)NCC(O)c2cccc(C(F)(F)F)c2)cc1 (stereo not given)
Second: CC(Cc1ccc(OCCOc2ccccc2)cc1)NCC(O)c1cccc(C(F)(F)F)c1 (stereo not given)
The IC50 of the first is 2.4-fold lower: 410 nM for the first, 970 nM for the second. The first is the more potent here.

`CCOc1cc(C(=O)NC2CC(C)(C)N(C)C(C)(C)C2)ccc1-c1nc2cc(Cl)c(Cl)cc2[nH]1` and `CCOc1cc(C=NNc2nc(C)cc(-n3nc(C)cc3C)n2)ccc1O` are within 1.5-fold of each other in IC50: 860 nM for the first, 1080 nM for the second.

`CCOC(=O)c1c(NC(=O)c2ccccc2)sc2c(O)c(CNC3CCCCC3)ccc12` and `CCOC(=O)c1c(CN2CCCC2)n(-c2ccccc2)c2cc(Br)c(O)cc12` are within 1.5-fold of each other in IC50: 750 nM for the first, 1010 nM for the second.

Compared with `Nc1nc(N)c2c(ccc3c2ccn3CCCC(F)(F)F)n1`, `OC(c1cc(C(F)(F)F)nc2c(F)cccc12)C1CCCCN1` (stereo not given) is 7.8-fold higher in IC50: 100 nM for the first, 780 nM for the second.

Compared with `COc1cc2nc(SCC(C)C)n(CCCn3ccnc3)c(=N)c2cc1OC`, `Cc1ccc(-c2cc3nc4c(c(NCCCn5ccnc5)n3n2)CCC4)cc1` is 1.5-fold higher in IC50: 610 nM for the first, 920 nM for the second.

Going from `COc1ccccc1N1CCN(CCCCN(C(=O)Nc2cccc(Cl)c2)C(=O)Nc2cccc(Cl)c2)CC1` to `O=C(Nc1cccc(CN2CCN(Cc3ccc(O)cc3)CC2)c1)c1cc2ccccc2o1`, the IC50 rises from 710 nM to 1180 nM (1.7-fold).

`CCNc1cc(C(=O)N[C@@H](Cc2cccc(F)c2)[C@H](O)CNC(C)CCCC(C)C)cc(N2CCCCS2(=O)=O)c1` (stereo not given in full) and `O=C(Nc1cccc(-c2ccc(NCCCN3CCCC3)nc2)c1)c1ccccc1` are within 1.5-fold of each other in IC50: 600 nM for the first, 870 nM for the second.

`Cc1nc(-c2ccc(-c3ccc(C(=O)Nc4ccc5c(c4)C4(CCNCC4)CO5)cc3)c(C)c2)no1` and `CC(=O)Nc1cccc(C(=O)Nc2cccc(-c3ccc(-c4nc5c(C)cccc5[nH]4)s3)c2)c1` are within 1.5-fold of each other in IC50: 860 nM for the first, 770 nM for the second.

Going from `CN1CCC(N2CCN(Cc3cccc(-c4cccc(-c5nc6ccccc6[nH]5)c4)c3)CC2)CC1` to `O=C(NCc1ccccc1)c1ncn(CCCN2CCC(N3CCCC3)CC2)c1-c1ccc(Cl)c(Cl)c1`, the IC50 rises from 190 nM to 1120 nM (5.9-fold). The first is the more potent here.

`Cc1onc(-c2ccccc2)c1-c1nc(NC2CCCC(C)C2)no1` (stereo not given) and `O=C(CN1CCC(NCc2cnc(-c3ccc(Cl)cc3)[nH]2)CC1)N1CCc2ccccc21` are within 1.5-fold of each other in IC50: 840 nM for the first, 650 nM for the second.

First: COc1ccc2nccc([C@@H](O)CN3CCC(NCc4cc5ccc(C#N)cc5[nH]4)CC3)c2c1
Second: COc1ccc2nccc([C@@H](O)CN3CCC(NC(=O)/C=C/c4ccc5[nH]c(=O)ccc5c4)CC3)c2c1
The IC50 of the first is 9.7-fold lower: 100 nM for the first, 970 nM for the second.

`O=S(=O)(Nc1cccc(CCN2CCCCC2CCN2CCCC2)c1)c1ccc(Oc2ccccc2)cc1` (stereo not given) and `CC(Cc1ccc(Oc2ccc(Cl)cc2)cc1)NCC(O)c1cccc(Cl)c1` (stereo not given) are within 1.5-fold of each other in IC50: 1050 nM for the first, 740 nM for the second.

`COc1ccc(OCCON)cc1` and `C/C=C/COc1ccc(-c2c(C)[nH]c(C)c(Cl)c2=O)cc1` are the same in IC50: 200 nM for the first, 200 nM for the second.

`CC(C)c1ccc(NC(=O)c2ccc(C(=O)NC3CCN(CC4CCCCC4)C3)cc2)cc1` (stereo not given) and `CC(Nc1ccnc2cc(Cl)ccc12)c1ccc(S(N)(=O)=O)cc1` (stereo not given) are within 1.5-fold of each other in IC50: 790 nM for the first, 930 nM for the second.

`O=c1cc(NCCCNC2CCc3ccc(Cl)cc32)[nH]c2ccccc12` (stereo not given) and `Cc1[nH]c2cc(Cl)ccc2c1C1=CCN(CCN2CCOc3c(Br)cccc3C2=O)CC1` are within 1.5-fold of each other in IC50: 860 nM for the first, 870 nM for the second.

Going from `CC(=O)Nc1cccc(C(=O)Nc2cccc(-c3csc(-c4nc5ccccc5[nH]4)c3)c2)c1` to `COc1ccc(-c2cnc3[nH]cc(-c4ccc(C(=O)O)cc4)c3c2)cn1`, the IC50 rises from 180 nM to 540 nM (3-fold).
